In patent publication US20230221321A1, “METHOD FOR IDENTIFYING COMPOUNDS USEFUL FOR THE TREATMENT OF CANCER” (UNIVERSITÉ PARIS-SACLAY, priority 2020, published 2023):
Structures can show the parent of a compound that is named as a salt. Where two headings read alike, the source gives them in different places.

Columns and labels:
[1] = system: A549 non-small-cell lung cancer cells; assay: Cytotoxicity by lactate dehydrogenase (LDH) release in A549 cells; type: cell-based, human; conditions: A549, 3 h treatment; lowest dose tested for which a toxicity greater than 20% was measured
Procedure: The effect of the compounds on the metabolism of a non-small-cell lung cancer cell line (A549) was tested using the Seahorse technology (XFe96, Agilent) and the cell death was evaluated by measuring the release of lactate dehydrogenase (LDH, Promega). The cells seeded into 96-well microplates (20 000 cells/well) were treated with the compounds as a dose response (0.03; 0.1; 0.3; 1; 3; 10 µM) for 3 h in serum-free DMEM medium and then mitochondrial respiration (OXPHOS) and glycolysis were measured in real time. At the end of the experiment, the culture supernatant was removed in order to analyze the cell death, and the number of cells was determined by counting, after labelling the cells with DAPI, using a fluorescence microscope (Zeiss). The number of cells per well at the end of the experiment was then used to normalize the results obtained by Seahorse.
The compound concentration indicated in the “toxicity” column represents the lowest dose tested for which a toxicity greater than 20% was measured.

[2] = target: T1, AIF/CHCHD4 (Homo sapiens, UniProt O95831); assay: AlphaScreen (ALPHA) assay of the AIF103-613/CHCHD4 interaction; type: binding
T1 construct: The AIF103-613 protein (AIF protein fragment 103-613) and CHCHD4 protein were produced in BL21 + DE3 bacteria; made in house; host or cells: E. coli BL21 + DE3 (RIPL)
T1 sequence (O95831 103-613 limits assumed): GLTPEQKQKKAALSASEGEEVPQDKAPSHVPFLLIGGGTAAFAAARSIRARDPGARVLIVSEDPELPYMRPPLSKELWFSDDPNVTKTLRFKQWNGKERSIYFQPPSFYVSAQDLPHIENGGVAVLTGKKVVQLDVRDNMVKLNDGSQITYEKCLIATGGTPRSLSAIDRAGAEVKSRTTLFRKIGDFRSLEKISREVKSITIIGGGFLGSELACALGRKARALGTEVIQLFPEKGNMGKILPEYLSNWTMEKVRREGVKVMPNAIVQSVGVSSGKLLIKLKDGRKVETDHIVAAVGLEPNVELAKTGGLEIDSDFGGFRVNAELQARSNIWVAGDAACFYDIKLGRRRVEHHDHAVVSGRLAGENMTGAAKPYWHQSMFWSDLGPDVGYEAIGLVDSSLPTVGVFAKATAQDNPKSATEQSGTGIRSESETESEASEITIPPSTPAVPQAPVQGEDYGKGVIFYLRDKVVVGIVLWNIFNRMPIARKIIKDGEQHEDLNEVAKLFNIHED
From the text: This method comprises the use: • of the AIF103-613 and CHCHD4 proteins previously produced; • of an AlphaScreen® kit (PerkinElmer) comprising donor beads and acceptor beads capable of conjugating to the AIF and CHCHD4 proteins; • of a positive control: the N27 peptide (corresponding to the 27 amino acids of the N-ter end of the CHCHD4 protein, as described in Hangen et al., 2015); • of a negative control: 0.1% bovine serum albumin (BSA) solution in phosphate buffered saline (PBS); • of a library of compounds to be tested: the Prestwick chemical compound library (Prestwick Chemical Library®) .
The ALPHA assay was first of all carried out at high throughput, using 384-well white microplates (Greiner, reference 781075), using 25 µl of total volume per well. The proteins, the positive control and the beads were diluted in a 0.1% BSA/PBS solution. All the distributions were carried out with an electronic multipipet, then the plates were centrifuged (200 g, 1 min). The plates were hermetically closed and incubated in the dark in a room at 23° C.
A library of 1280 small molecules, supplied by Prestwick Chemicals (Prestwick Chemical Library®) was screened. This library comprises compounds with various chemical and pharmacological properties, which are already approved by the health authorities, such as the FDA (Food and Drug Administration) or the EMEA (European Medicines Evaluation Agency). Each compound of the library is diluted in a 0.1% DMSO solution and used at a concentration of 10 µM. First of all, 5 µl of compound at […], of N27 at 3 µM (positive control) or of 0.1% BSA/PBS (negative control) were added to the wells. Secondly, 5 µl of AIF103-613 proteins were incubated with the compounds for 20 min before the addition of 5 µl of CHCHD4 for 2 h. Thirdly, 10 µl of a mixture of donor beads and acceptor beads at […] were incubated for 3 h. The analysis of the results was carried out by means of an EnSpire® multimode plate reader (PerkinElmer).
For each 384-well plate, 16 wells correspond to the positive control and 16 wells correspond to the negative control. The positive control corresponds to the measurement of the interaction of the AIF103-613 and CHCHD4 proteins in the presence of the N27 peptide (equivalent to the minimal signal). The negative control corresponds to the measurement of the interaction of the AIF103-613 and CHCHD4 proteins in the presence of the buffer (0.1% BSA/PBS) (equivalent to the maximum signal).
Following the high-throughput screening, the compounds are selected if the signal obtained in the presence of the compound is less than the following threshold TH:
For each compound previously selected, the ALPHA assay is repeated manually using another batch of powder of the compounds.
Each compound is tested at 10 µM and 30 µM due to the Hook effect particular to the ALPHAscreen technology and in order to select the compounds giving a signal located in the ascending part of the Hook bell and therefore active at low dose in a drug development perspective.
The compound is selected if: • the signal obtained in the presence of the compound is less than the threshold TH as described above; and • the signal obtained at 30 µM is less than the signal obtained at 10 µM.
In addition, for each compound thus selected, the dose-effect relationship of the compound is determined. This makes it possible to determine the median inhibitory concentration (IC50) of said compound.

[3] = target: T2, AIF103-613/CHCHD4 (Homo sapiens, UniProt O95831); assay: Surface plasmon resonance (SPR, Biacore) assay of the AIF/CHCHD4 interaction; type: binding; conditions: compound preincubated 20 min with AIF, injected onto immobilized CHCHD4; criterion at least 50% of the inhibition obtained with N27 peptide
T2 construct: The AIF103-613 protein (AIF protein fragment 103-613) and CHCHD4 protein were produced in BL21 + DE3 bacteria; made in house; host or cells: E. coli BL21 + DE3 (RIPL)
T2 sequence (O95831 103-613 limits assumed): as above
Procedure: FIG. 3: SPR analysis of the compounds identified by Alphascreen. (A) SPR validation of thioridazine and of mitoxantrone, by means of the […], as inhibitors of the AIF103-613/CHCHD4 interaction. The compounds at 10 µM were incubated for 20 min with AIF in DPBS at pH 7.4 at ambient temperature. Then, the mixture was then injected for 3 minutes at a rate of 30 µl per minute onto the CHCHD4 protein. The N27 peptide at 3 µM was used as a […]. (B) Surface plasmon resonance (SPR) sensorgrams, making it possible to follow the binding of AIF103-613 to CHCHD4 in the presence of thioridazine hydrochloride or of mitoxantrone dihydrochloride. The thioridazine hydrochloride and the mitoxantrone dihydrochloride were tested at increasing concentrations ranging from 0.5 µM to 50 µM.
Some of the compounds identified by means of the Alpha assay as described above were tested by surface plasmon resonance (Biacore™ T100, GE Healthcare Life Sciences). The CHCHD4 protein was immobilized covalently on a dextran matrix comprising COOH functional carboxyl groups (Series S CM5® sensor chip, GE Healthcare Life Sciences, 29149603). […]
The sensorgrams were analyzed using the BIAevaluation software (Version 2.0.4).
The inhibition of the interaction of the AIF and CHCHD4 proteins by thioridazine and mitoxantrone was analyzed by means of a surface plasmon resonance assay (cf. FIG. 3). […]

[4] = target: T3, AIF103-613 protein (AIF protein fragment 103-613) (human, UniProt O95831 103-613); assay: AlphaScreen cross-titration
T3 construct: also called apoptosis-inducing factor
T3 sequence (O95831 103-613): as the sequence (O95831 103-613 limits assumed) above

[5] = obtained manually using the Alphascreen assay, read-out: IC50 AIF/CHCHD4

Row | IC50 [2, 5] [µM] | binding result [4] | Molecule | Cellular toxicity [1] [µM] | inhibition of the interaction between the AIF and CHCHD4 proteins (SPR) [3] | IC50 [2] [µM]
1 | 8 |  | COC(=O)C1=C(C)NC(C)=C(C(=O)OC2CCCN(Cc3ccccc3)C2)[C@@H]1c1cccc([N+](=O)[O-])c1 (stereo partly shown) [Benidipine hydrochloride] | 10 |  | 
2 | 10.6 |  | CCSc1ccc2c(c1)N(CCCN1CCN(C)CC1)c1ccccc1S2.O=C(O)CC(O)C(=O)O.O=C(O)CC(O)C(=O)O [Thiethylperazine dimalate] | 10 |  | 
3 | 24 |  | CSc1ccc2c(c1)N(CCC1CCCCN1C)c1ccccc1S2 (stereo not shown) [Thioridazine hydrochloride] | 1 | capable of inhibiting the interaction | 
4 | 12 |  | Nisoldipine |  |  | 
5 |  |  | O=C1OC2(c3cc(Br)c(O)cc3Oc3c2cc(Br)c(O)[c]3[Hg][OH])c2ccccc21 (stereo not shown) [Merbromine] |  |  | 0.169
6 | 0.415 |  | CCN(CC)C(=S)SSC(=S)N(CC)CC [Disulfiram] | 3 |  | 
7 | 4.8 |  | CO[C@H]1/C=C/O[C@@]2(C)Oc3c(C)c(O)c4c(O)c(c(/C=N/N5CCN(C6CCCC6)CC5)c(O)c4c3C2=O)NC(=O)/C(C)=C\C=C\[C@H](C)[C@H](O)[C@@H](C)[C@@H](O)[C@@H](C)[C@H](OC(C)=O)[C@@H]1C [Rifapentine] | 10 |  | 
8 |  | binds | CHCHD4 protein (coiled-coil-helix-coiled-coil-helix domain containing 4) (other, In SPR the protein was coupled covalently to a CM5 chip; also called MIA40; mitochondrial intermembrane space import and assembly protein 40) MSYCRQEGKDRIIFVTKEDHETPSSAELVADDPNDPYEEHGLILPNGNINWNCPCLGGMASGPCGEQFKSAFSCFHYSTEEIKGSDCVDQFRAMQECMQKYPDLYPQEDEDEEEEREKKPAEQAEETAPIEATATKEEEGSS |  |  | 

Row | Molecule | IC50 [2, 5] [µM] | binding result [4] | Cellular toxicity [1] [µM] | inhibition of the interaction between the AIF and CHCHD4 proteins (SPR) [3] | IC50 [2] [µM]
9 | COc1cc(-c2ccc(N=Nc3ccc4c(S(=O)(=O)O)cc(S(=O)(=O)O)c(N)c4c3O)c(OC)c2)ccc1N=Nc1ccc2c(S(=O)(=O)O)cc(S(=O)(=O)O)c(N)c2c1O [Chicago sky blue 6B] | 1.44 |  |  |  | 
10 | Mitoxantrone dihydrochloride | 1.27 |  | 3 | capable of inhibiting the interaction | 
11 | Bromocriptine mesylate | 4.57 |  | 3 |  | 
12 | NCCNCCNCCNCCN [Tetraethylenepentamine pentahydrochloride] | 9 |  | 10 |  | 
